Values of other authors, collected in patent publication US20250134923A1, “SUPERABSORBENT HYDROGELS WITH LIPASE INHIBITOR” (JUNION LABS PTE. LTD., priority 2021, published 2025).

Tested on: fat absorption
Settings: therapeutic doses (120 mg with meals)

For CCCCCCCCCCC[C@@H](C[C@@H]1OC(=O)[C@H]1CCCCCC)OC(=O)[C@H](CC(C)C)NC=O [Orlistat, (2S,3S,5S)-5-[(S)-2-formamido4-methyl-valeryloxy]-2-hexyl-3-hydroxy-hexadecanoic 1,3 acid lactone], the additional caloric deficit is listed as “approximately 200 calories” and the “inhibition of fat absorption (of ingested fat)” value is listed as “approximately 30%”.
